Assays:
[1] = system: Saprolegnia parasitica T-1; experiment: Tilapia-saprolegniosis early infection model; type: in vivo, Hybrid tilapia (Oreochromis niloticus X Oreochromis aureus)
Description: Hybrid tilapia (Oreochromis niloticus X Oreochromis aureus), with an average weight of 20 g were treated against ectoparasites using 25 μg/ml of formaldehyde (37% v/v) two weeks prior to the experiment, and were maintained at a constant temperature of 21° C. in a 100 liter polyethylene tank. The water tank was cooled from an initial temperature of 21° C. to 14° C. over a period of 10 days. The water was kept at a constant temperature of 14° C. and the fish were acclimated for 4 days. Physical stress of abrasion was then applied by agitating 40 fish for 10 seconds within a plastic net (30×20 cm). Following this, a sterile stainless steel tea infuser containing 60 clover-seeds covered with hyphae of Saprolegnia parasitica T-1 (7 day old culture on GP-PS medium at 18° C.) was added to each tank, in which the fish density was 20 fish per 100 liters. This treatment lasted 48 h and allowed the dispersion of zoospores that were produced. The density of the zoospores in the water was determined according to the method described below, and was estimated as 5×10^2-2×10^3 zoospores per liter. The fish were then transferred to different tanks, and treated with Blankophor® BA (200, 100, 50 or 25 mg/L) or Malachite Green (0.25 mg/L) for 8 h at 13-14° C., with 10 fish per 100 L water. The treatments were applied on 2nd, 4th and 6th day following initiation of the experiment. The fish were monitored for 14 days for the presence of any lesion covered with hyphae, indicative of Saprolegnia infection. Skin biopsies of diseased and moribund fish were checked microscopically (10× and 40× magnification). Morbidity and mortality was monitored daily. Moribund and or dead fish were removed from all tanks during the experimental period.
The determination of zoospore density in the water was performed according to Willoughby, L. G. (1994) Fungi and fish diseases, Pisces Press, Stirling, Scotland p. 57.
In brief, a 1 liter sample of water from the 100 liter tank was divided into 1 and 10 ml aliquots in sterile Petri dishes. Each sample was diluted with water to give a final volume of 20 ml and then one sterile clover seed was added in order to attract and keep the zoospores. All the water samples were incubated at room temperature for 72 h allowing spore germination. The density of the zoospores was determined according to the number of seeds covered with visible mycelium.
Treatments were carried out on the 2nd, 4th and 6th days after the initiation of the infection, and each treatment was for a period of 8 h. Fish treated with 0.25 mg/L Malachite Green served as a positive treatment control. Fish were monitored for 14 days. […] All fish treated with Blankophor BA survived for at least 10 days following initiation of the infection, in contrast to untreated fish which progressively died from the 3rd day.
Due to the high efficacy of the treatment with 100 mg/L Blankophor® BA, additional experiments were performed using lower concentrations of Blankophor® BA (50 and 25 mg/L). As in the previous experiments, infected fish were treated in tanks containing different concentrations of the compound on the 2nd, 4th and 6th days after the initiation of the infection. In addition, two additional treatment regimens were added i.e. 50 mg/L (administered on the 2nd and 9th days after initiation of the infection) and 100 mg/L (administered on the 2nd day after initiation of the infection).

Microcystis = experiment: Delayed Fluorescent Excitation Spectroscopy (DFES) of pure algal culture; type: cell-based, Microcystis sp.; details: 100 mg/L
Description: (§1) The Delayed Fluorescent Excitation Spectroscopy (DFES) method was used for qualitative and quantitative assessment of the influence of Blankophor® BA on the natural population of phytoplankton, and on specific algae strains. Delayed fluorescence is a unique characteristic of photosynthetically active cells, as it is an outcome of recombination that takes place in the thylakoids in the dark (Yacobi Y. Z., V. Gerhardt, Y. Gonen-Zurgil, and A. Sukenik. 1998. Delayed fluorescence excitation spectroscopy: a rapid method for the qualitative and quantitative assessment of natural population of phytoplankton. Wat. Res. 00:1-6).
(§2) Samples from Lake Kinneret and pure cultures of Peridinium sp. and Microcystis sp. were exposed to Blankophor® BA (100 mg/L), for a few minutes and the concentration of chlorophyll-a was determined (in duplicate) according to the excitation spectrum examined (range from 400 to 730 nm). In addition, the exposed and non-exposed samples were assessed for carbon uptake with a ^14C technique.

[2] = system: Lake Kinneret water samples; experiment: Delayed Fluorescent Excitation Spectroscopy (DFES) of natural phytoplankton; type: cell-based; details: 100 mg/L; 4.6 μg/L prior to exposure
Description: as §1, §2

Daphnia sp. = experiment: Toxicity to zooplankton (motility); type: in vivo; details: 100 and 1,000 mg/L, 48 h
Description: Daphnia sp. is a small (0.2 to 5 mm in length) planktonic crustacean, commonly used as a model for aquatic toxicity.
Daphnia (˜1,000 […]/L water) was exposed to Blankophor® BA 100 and 1,000 mg/L). The experiment was carried out in covered flasks (100 ml/per flask), equipped with air supply. The flasks were incubated at room temperature for 48 h, and the Daphnia motility was recorded.

[3] = system: Gyrodactilus sp. and Trichodina sp.; experiment: Non-randomized field trial in a cement pond, concurrent parasitic disease; type: in vivo, hybrid tilapia; details: 50 mg/L, 3 treatments of 8 h at 48 h intervals; 2 days after end
Description: (§3) Following transfer of 2000 hybrid tilapia fish (20-30 g) to a cement pond (1×10^5 L, 21 to 25° C.), white patches of filamentous mycelium were observed on the body and fins of fish, covering in most cases about 80% of the body surface. The mycelia appeared about four days after the transfer, presumably due to opportunistic infection by Saprolegnia sp. following handling stress. Death of 20 to 30 fish per day was recorded. All the dead fish were covered with mycelium, characteristic of Saprolegnia sp., and were also found to be infected with the parasites Gyrodactilus sp. and Trichodina sp.
(§4) The water capacity in the pond was decreased to 3×10^4 L, and treatment with Blankophor® BA (50 mg/L) was initiated. A regimen of 3 treatments (8 h each) with 48 hours intervals between them was used.

various fish species = experiment: Toxicity testing in various fish species; type: in vivo; details: all five fish species tested, 15° C., up to 96 h
Description: LC50 values for Blankophor® BA in various fish species were determined as in Example 2, except that fish were acclimated to 21° C. for three weeks, and then to 15° C. for another two weeks before the initiation of the experiment. Following acclimation to 15° C., Blankophor® BA (100, 200, 500, 1,000 or 2,000 mg/L) was added to the tanks, and mortality of fish was recorded up to 96 h. […] The fish used were: hybrid tilapia (Oreochromis niloticus X O. aureus), average weight 20 g; grey mullet (Mugil cephalus), average weight 70 g; common carp (Cyprinus carpio), average weight 25 g; hybrid striped bass (Morone saxatilis X M. chrysops), average weight 25 g, and grass carp (Ctenopharyngodon idella), average weight 25 g.

Saprolegnia sp. = experiment: Non-randomized field trial in a cement pond, oomycete disease; type: in vivo, hybrid tilapia; details: 50 mg/L
Description: as §3, §4

Compound | fish died within 14 days ([1]; 100 mg/L on 2nd, 4th and 6th days) | photosynthetic activity versus non-treated samples (Microcystis) | total chlorophyll concentration (average) [2] | Daphnia motility versus non-exposed control (Daphnia sp.) | presence of parasites on visual and microscopic examination [3] | LC50 (various fish species) | presence of Saprolegnia sp. on visual and microscopic examination (Saprolegnia sp.; 3 treatments of 8 h at 48 h intervals, 2 days after end) | deaths recorded (Saprolegnia sp.; after the first 8 h treatment) | prevalence and intensity of saprolegniosis (Saprolegnia sp.; after the first 8 h treatment) | preventing and treating saprolegniosis in tilapia fish ([1]; 25 mg/liter for 8 hours) | clinical observation, lesions ([1]; 50 and 100 mg/L) | culture for Saprolegnia ([1]; 50 and 100 mg/L) | survival following initiation of the infection ([1]; 100 and 200 mg/L, 8 h on 2nd, 4th and 6th day, all treated fish) | therapeutic efficacy (survival of fish) ([1]; 100 and 200 mg/L, 8 h on 2nd, 4th and 6th day, monitored 14 days) | Therapeutic efficacy ([1]; Table 4 summary) | efficacy in preventing and treating early stage saprolegniosis ([1]; even at a concentration as low as 25 mg/L, also 50 mg/L (days 2, 9) and 100 mg/L (day 2))
C=O [Formaldehyde] | 70% | – | – | – | – | – | – | – | – | – | – | – | – | – | – | –
O=S(=O)([O-])c1cc(Nc2nc(Nc3ccccc3)nc(N(CCO)CCO)n2)ccc1C=Cc1ccc(Nc2nc(Nc3ccccc3)nc(N(CCO)CCO)n2)cc1S(=O)(=O)[O-].[K+].[Na+] [Blankophor® BA] | – | no difference | 9.2 µg/L | no difference | free of | greater than 2000 mg/L | free of | no further deaths | Significant reduction | effective | free of lesions | negative upon culture | at least 10 days | as effective as Malachite Green | Very Effective | highly effective

Source: patent publication US8377934B2, “Use of stilbene derivatives for treatment and prevention of aquatic mold infections” (State of Israel, Ministry of Agriculture & Rural …, priority 2006, dated 2013)
